Literature values, collected in US20240350592A1, “COMPOSITION AND METHODS OF TREATMENT USING […]-ENHANCED SUPPLEMENTATION” (Xygenyx Inc., priority 2023, published 2024).
Square brackets hold non-standard residues; d marks the D form. Peptide text beside a SMILES is read from it. Cit = NC(=O)NCCC[C@H](N)C(=O)O

Experiments:
[1] = single penetration enhancer
[2] = tested on: rheumatoid arthritis; details: arthritic subjects
[3] = tested on: depression; details: patients who did not respond to traditional antidepressant medications
[4] = compared to α-tocopherol taken as 1.0
[5] = even when dietary intake occurs in equal portions
[6] = tested on: markers of inflammation; details: individuals with metabolic syndrome
[7] = tested on: skin; details: topical, concentrations 0.5-5%
[8] = tested on: skin; details: topical formulations; within four weeks of treatment
[9] = in vivo
[10] = tested on: F2-isoprostane; details: doses of 1600-3200 IU/day
[11] = tested on: neurodegenerative diseases such as Alzheimer's Syndrome or dementia; details: dietary supplementation, doses up to 400 IU/day; controlled trials
[12] = tested on: coronary disease; details: dietary supplementation, doses up to 400 IU/day
[13] = tested on: wide dynamic range neurons in the ventroposterolateral nucleus of the thalamus
[14] = in vivo; remark: listed apart in the source

Compound: CC12CCC(CC1)C(C)(C)O2 [eucalyptol, 1,8-epoxy-p-menthane]
- factor of increase of transdermal drug uptake [1]: more than 10

Compound: C/C(=C\CO)CCC[C@H](C)CCC[C@H](C)CCCC(C)C [Phytol]
- solubility in water: nearly insoluble in water

Compound: C=C1CC/C=C(\C)CC[C@@H]2[C@@H]1CC2(C)C [β-caryophyllene]
- number of circulating and articular leukocytes [2]: reduced
- swelling of joints and lymph nodes [2]: reduced

Compound: CN1c2c([nH]c(N)nc2=O)NCC1CNc1ccc(C(=O)N[C@@H](CCC(=O)O)C(=O)O)cc1 (stereo partly shown) [5-MTHF, 5-methyltetrahydrofolate]
- symptoms of depression [3]: improved

Compound: Cc1c(O)cc2c(c1C)O[C@](C)(CCC[C@H](C)CCC[C@H](C)CCCC(C)C)CC2 [γ-tocopherol]
- relative biological activity [4]: 0.1
- concentration in vivo relative to α-tocopherol [5]: roughly 10%

Compound: Cc1cc(O)cc2c1O[C@](C)(CCC[C@H](C)CCC[C@H](C)CCCC(C)C)CC2 [δ-tocopherol]
- relative biological activity [4]: 0.03
- markers of inflammation in the blood [6]: reduced

Compound: C=CCCCCCCCCC(=O)N[C@@H](Cc1ccccc1)C(=O)O [UP, Undecylenoyl phenylalanine]
- time of treatment to skin lightening effects [7]: ≥ 7 days

Compound: Cc1cc(O)c(C)c2c1O[C@](C)(CCC[C@H](C)CCC[C@H](C)CCCC(C)C)CC2 [β-tocopherol]
- relative biological activity [4]: 0.5

Compound: CC[C@H](C)[C@H](NC(=O)[C@H](CC(=O)O)NC(=O)[C@@H](N)CCCCN)C(=O)N[C@@H](CCCNC(N)=O)C(N)=O [tripeptide-10 citrulline, Tripeptide-10 citrulline] (H-KDI[Cit]-NH2)
- improvement of suppleness [8]: ≤ 54%

Compound: HGH: hormone comprising a peptide chain that is synthesized in the pituitary gland
- biological half-life [9]: 10-20 minutes

Compound: CC(C)[C@@H]1CC[C@@H](C)C[C@H]1O [Menthol]
- factor of increase of transdermal drug uptake [1]: ≥ 10

Compound: Cc1c(C)c2c(c(C)c1O)CC[C@@](C)(CCC[C@H](C)CCC[C@H](C)CCCC(C)C)O2 [α-tocopherol]
- blood plasma concentration of F2-isoprostane [10]: significantly lower
- reduction of the risk of developing neurodegenerative diseases [11]: ≤ 24%
- reduction of the risk of coronary disease [12]: up to 34%

Compound: CCCCCc1cc(O)c2c(c1)OC(C)(C)C1CCC(C)=CC21 (stereo not shown) [THC, Δ-9-tetrahydrocannabinol]
- power in mediating pain compared to morphine [13]: ten times more powerful than morphine

Compound: CCNC(=O)CC[C@H](N)C(=O)O [Theanine]
- dose generally considered safe and well-tolerated [14]: up to 400 mg per day
